Laboratory results: US5585492A, “LTA4 Hydrolase inhibitors” (priority 1994, dated 1996)
pIC50: −log10 of the molar value. Counter-ions that a name gives are not always drawn. Like-named read-outs stand apart in the source and are kept apart here.

Key:
[1] = test system: LTB4 production in mouse blood; test: Murine Ex Vivo LTB4 Inhibition, calcium ionophore stimulated mouse blood after oral gavage; type: in vivo
Method: Leukotriene A4 hydrolass inhibitor compounds of the present invention were diluted to a predetermined concentration in phosphate buffered saline containing 2% DMSO and 1% Tween 80. The compounds were administered by oral gavage to adult male outbred mice weighing approximately 20-30 gm at a dose of 10 mg/kg body weight. (Compounds given at a dose of 50 mg/kg body weight are designtated in following Table by the symbol, *.) Sixty (60) minutes after administration of an LTA4 inhibitor compound of the invention, blood was collected (into heparin-containing tubes) from the retroorbital sinus. […] The mixture was incubated for 10 minutes at 37° C. in a humidified incubator. The reaction was terminated by centrifugation (833 g, 10 minutes at 4° C.). Supernatants were analyzed for LTB4 and thromboxane by commercially available enzyme-linked immunoassays [Caymen Chemical Co., Ann Arbor, Mich.] in accordance with the manufacturer's instructions. The percent inhibition was determined by comparison to animals treated identically except that the solution admininstered by oral gavage was devoid of inhibitor compound.

[2] = test system: LTB4 production in human blood; test: Inhibition of Calcium Ionophore-Induced LTB4 Production in Human Blood (HWB); type: cell-based; settings: Homo sapiens, read-out: Inhibition of Calcium Ionophore-Induced LTB4 Production in Human Blood IC50 HWB
[3] = target: T1, recombinant human LTA4 hydrolase (Homo sapiens, UniProt P09960); test: Recombinant Human LTA4 Hydrolase Assay for LTA4 Hydrolase Inhibitor Activity (LTB4 by enzyme-linked immunoassay); type: biochemical; settings: for pIC50: read-out: Recombinant Human LTA4 Hydrolase Assay IC50 LTA4H
T1 construct: made in house; host or cells: Spodoptera frugiperda Sf-9 cells, baculovirus (AcNPV) expression vector
T1 sequence (P09960 1-611): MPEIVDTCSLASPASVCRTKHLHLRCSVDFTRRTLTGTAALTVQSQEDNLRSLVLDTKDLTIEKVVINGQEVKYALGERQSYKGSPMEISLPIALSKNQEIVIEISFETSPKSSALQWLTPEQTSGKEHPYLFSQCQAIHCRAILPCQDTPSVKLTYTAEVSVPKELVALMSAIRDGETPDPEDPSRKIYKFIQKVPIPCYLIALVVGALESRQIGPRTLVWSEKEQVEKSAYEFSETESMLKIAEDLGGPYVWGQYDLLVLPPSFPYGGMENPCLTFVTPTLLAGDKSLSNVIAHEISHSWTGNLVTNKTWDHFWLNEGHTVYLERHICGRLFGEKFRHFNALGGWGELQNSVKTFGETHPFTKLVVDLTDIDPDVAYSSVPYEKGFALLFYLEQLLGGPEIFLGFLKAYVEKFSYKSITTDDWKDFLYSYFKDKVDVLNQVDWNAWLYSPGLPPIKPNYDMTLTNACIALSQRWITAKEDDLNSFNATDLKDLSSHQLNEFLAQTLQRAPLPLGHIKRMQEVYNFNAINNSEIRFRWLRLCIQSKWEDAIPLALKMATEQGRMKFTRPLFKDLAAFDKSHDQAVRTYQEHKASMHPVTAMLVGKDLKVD
Method: Compounds of the present invention were tested for LTA4 hydrolase inhibitor activity against recombinant human LTA4 hydrolase (rhLTA4 H). […] Briefly, LTA4 hydrolase encoding DNA was amplified by polymerase chain reaction using a pair of oligonucleotide primers based on the nucleotide sequence from the 5'-end, and the complement of the 3'-end, of the coding region of the LTA4 hydrolase gene, the nucleotide sequence of which gene is known. […] A λgtll human placental cDNA library (Clonetech, Palo Alto, Calif.) provided the nucleic acid template.
One or more predetermined amounts of a compound of the invention were incubated in assay buffer (0.1M potassium phosphate, 5 mg/ml fatty acid free BSA, 10% DMSO, pH 7.4) for 10 minutes at room temperature with 250 ng of recombinant hLT4 H to allow binding, if any, between the enzyme and inhibitor. The stock enzyme solution was 1 mg/ml LTA4 hydrolase, 50 mM Tris, pH 8.0, 150 mM NaCl, 2.5 mM beta-mercaptoethanol, 50% glycerol. […] LTA4 (i.e., substrate) was prepared from the methyl ester of LTA4 (Biomol, Inc., Plymouth Meeting, Pa.) by treating the methyl ester with 30 molar equivalents of LiOH at room temperature for 18 hours. The LTA4 substrate in its free acid form was kept frozen at -80° C. until needed. […] Each reaction was carried out at room temperature for 10 minutes. The reaction was stopped by diluting 25 μl of the reaction mixture with 500 μl of the assay buffer without DMSO. LTB4 was quantified in the diluted sample by a commercially available enzyme-linked immunoassay [Caymen Chemical Co., Ann Arbor, Mich.] using the method recommended in the manufacturer's instructions and compared to the amount of LTB4 produced in a negative control (i.e., essentially identical conditions except without addition of an inhibitor compound). The IC50 was routinely calculated from the data produced.

[4] = human whole blood, A23187 20 mcg/ml

SMILES | Murine Ex Vivo LTB4 Inhibition % I LTB4 at 1 hour after administration of 10 mg/kg ([1]; oral gavage, 10 mg/kg, 1 hour) [%] | pIC50 [2, 4] | pIC50 [3] | also measured
Clc1cccc(COc2ccc(OCCN3CCCC3)cc2)c1 [Example 206] | 0 | 5.78 |  | 
c1ccc(Cc2ccc(OCCn3cccc4ncnc3-4)cc2)cc1 [Example 338A] | 22 |  | 6.85 | pIC50 [2]: 6.16
c1ccc(Cc2ccc(OCCn3cnc4cnccc43)cc2)cc1 [Example 340B] | 64 | 6.48 |  | 
c1ccc(Cc2ccc(OCCN3CCC(c4nnn[nH]4)CC3)cc2)cc1 [Example 450] | 91 |  | 6.62 | 
NC(=O)N1CCN(CCOc2ccc(Cc3ccccc3)cc2)CC1 [Example 459] | 44 | 5.62 | 5.95 | 
CC1CCCC(C)N1CCOc1ccc(Cc2ccccc2)cc1 (centres unmarked) [Example 402] | 58 |  |  | 
CC(=O)N1CCN(CCOc2ccc(Cc3ccccc3)cc2)CC1 [Example 277] | 42 | 6.26 | 6.28 | 
CNC(=O)C1CCN(CCOc2ccc(Cc3ccccc3)cc2)CC1 [Example 420] | 93 | 6.88 | 7.24 | 
c1csc(Cc2ccc(OCCN3CCCC3)cc2)n1 [Example 121] | 48 |  | 7.16 | 
Fc1cc(OCCN2CCCC2)ccc1Cc1ccccc1 [Example 116] | 18 | 5.96 | 7.28 | 
COC(=O)C1CC2CCC(C1)N2CCOc1ccc(Cc2ccccc2)cc1 (centres unmarked) [Example 278] | 95 |  | 7.66 | pIC50 [2]: 6.61
[O-][n+]1ccc2c(c1)ncn2CCOc1ccc(Cc2ccccc2)cc1 [Example 365] | 72 |  |  | 
c1ccc(Cc2ccc(OCCn3cnc4ncccc43)cc2)cc1 [Example 338B] |  | 6.48 | 8.10 | Murine Ex Vivo LTB4 Inhibition % I LTB4 at 1 hour after administration of 50 mg/kg (*) ([1]; oral gavage, 50 mg/kg (*), 1 hour): 92%
COC(=O)CC1CC2CC1CN2CCOc1ccc(Cc2ccccc2)cc1 (centres unmarked) [Example 304] |  |  | 7.82 | Murine Ex Vivo LTB4 Inhibition % I LTB4 at 1 hour after administration of 10 mg/kg ([1]; in vivo, po): 80%
c1ccc(Cc2ccc3c(c2)CC(Cn2ccc4ncnc-4c2)O3)cc1 (centres unmarked) [Example 358C] | 13 | 6.23 |  | 
COC(=O)C1CC2CCC(C1)N2CC1Cc2cc(Cc3ccccc3)ccc2O1 (centres unmarked) [Example 283] | 90 |  |  | pIC50 [2]: 7.05
FC(F)(c1ccccc1)c1ccc(OCCN2CCCC2)cc1 [Example 67] | 0 |  | 7.96 | 
CCOC(=O)C1CCN(CCOc2ccc(Cc3ccccc3)cc2)CC1 [Example 245] | 97 | 6.83 |  | 
O=C1CC2CCCC(C1)N2CCOc1ccc(Cc2ccccc2)cc1 [Example 303] |  |  | 7.01 | pIC50 [2]: 5.78
COC(=O)[C@@H]1CCCN1CCOc1ccc(Cc2ccccc2)cc1 [Example 225, Methyl 1-[2-[4-(phenylmethyl)phenoxy]ethyl]-2S-pyrrolidine-2-carboxylate, monohydrochloride, hydrate] |  | 5.73 | 6.35 | 
COC(=O)CCNCCOc1ccc(Cc2ccccc2)cc1 [Example 324] |  | 6.23 | 6.66 | 
COC(=O)CCN(C)CCCOc1ccc(Cc2cccs2)cc1 [Example 331] |  | 7.02 | 7.80 | 

SMILES | Murine Ex Vivo LTB4 Inhibition % I LTB4 at 1 hour after administration of 10 mg/kg ([1]; oral gavage, 10 mg/kg, 1 hour) [%] | pIC50 [2, 4] | pIC50 [3] | also measured
c1ncc(Cc2ccc(OCCN3CCCC3)cc2)s1 [Example 122] | 57 |  | 7.11 | 
COC(=O)CCN(C)CCCOc1ccc(Cc2ccsc2)cc1 [Example 330] | 95 | 7.05 |  | 
c1ccc(Cc2ccc(OCCn3cnc4ncncc43)cc2)cc1 [Example 357A] | 57 |  |  | 
c1nc(Cc2ccc(OCCN3CCCC3)cc2)cs1 [Example 49] | 46 |  | 6.72 | 
CCOC(=O)C1CCN(CCOc2ccc(Cc3ccccc3)s2)CC1 [Example 370] | 96 | 6.17 |  | 
O=C(O)C1CCN(CCOc2ccc(Cc3ccccc3)cc2)CC1 [Example 429] | 80 | 6.54 |  | 
COc1cccc(Cc2ccc(OCCN3CCCC3)cc2)c1 [Example 127] |  | 5.61 | 6.08 | 
Clc1ccc(Cc2ccc(OCCN3CCCC3)cc2)cc1 [Example 140] |  | 6.00 | 7.22 | 
c1ccc(Cc2ccc3c(c2)CC(Cn2cnc4cnccc42)O3)cc1 (centres unmarked) [Example 358B] | 33 | 6.19 |  | 
c1cncc(Cc2ccc(OCCN3CCCC3)cc2)c1 [Example 125] | 46 |  | 7.06 | 
COC(=O)C1CCN(CCOc2ccc(Cc3ccccc3)cc2)C1 (centres unmarked) [Example 276] |  | 6.63 | 5.39 | 
CCOC(=O)CCN(C)CCCOc1ccc(Cc2ccccc2)cc1 [Example 412] |  | 6.62 | 6.72 | 
c1ccc(Cc2cnc(OCCN3CCCC3)s2)cc1 [Example 76] |  | 5.46 | 5.54 | 
COC[C@@H]1CCCN1CCOc1ccc(Cc2ccccc2)cc1 [Example 400] |  | 6.42 | 7.22 | 
NC(=O)NC1CCN(CCOc2ccc(Cc3ccccc3)cc2)C1 (centres unmarked) [Example 453] |  | 6.46 | 7.09 | 
COC(=O)CCN(C)CCCOc1ccc(Cc2ccccc2)s1 [Example 375] | 67 | 6.62 |  | 
c1ccc(Oc2ccc(OCCN3CCCC3)cc2)cc1 [Example 44, 1-[2-(4-phenoxyphenoxy)ethyl]pyrrolidine] | 25 |  | 7.52 | 
NC(=O)CC1CCN(CCOc2ccc(Cc3ccccc3)cc2)C1 (centres unmarked) [Example 426] |  | 6.39 | 6.68 | 
c1ccc(Cc2ccc(OCCn3cnc4cccnc43)cc2)cc1 [Example 338C] |  | 5.04 |  | inhibition at 3 µM [3]: 34%
COc1ccc(Cc2ccc(OCCN3CCCC3)cc2)cc1 [Example 128] |  | 6.05 | 7.15 | 
c1ccc(Cc2ccc(OCCN3CCCC3)nc2)cc1 [Example 112] |  |  | 8.15 | Murine Ex Vivo LTB4 Inhibition % I LTB4 at 1 hour after administration of 50 mg/kg (*) ([1]; in vivo, po): 82%
NC(=O)NC1CCN(CCOc2ccc(Cc3ccccc3)cc2)CC1 [Example 456] |  | 6.36 | 7.06 | 
